# Patent publication US6858589B2, “Methods of and compositions for potentiating the action of agents active on cell wall sites of the susceptible bacteria” (priority 1996, dated 2005)
# Test system: E. coli NCTC 10418
# Assay: E. coli counts after gentamicin profile (peak 4 mg/l, then reconstituted maintained concentration)
# Type: cell-based, Escherichia coli
# Method: The aminoglycoside reached a peak concentration of 4 mg/l 30 minutes post-dose and was removed from the E. coli culture by washing. Medium containing 0, 2, 2.5 and 3 mg/l gentamicin was reconstituted and added to the culture at 1 hour after initial exposure to the aminoglycoside (n=6).
# The experimental work described herein involved testing bacterial response while changing aminoglycoside concentrations with time in the test tube, and mimics closely measurements made in man under clinical conditions (Bastone E B, Li S C, Ioannides-Demos L L, Spicer J., McLean A J, “Kill kinetics and regrowth patterns of E. coli exposed to gentamicin concentration-time profiles simulating in vivo bolus or infusion dosing”, Antimicrob Agents Chemother. 37:914-917, 1993).
# With each antibiotic, concentration-time profiles similar to those observed in the blood of clinical patients following conventional intravenous dosing of an aminoglycoside (gentamicin) and pump-driven profiles of gentamicin and cephalosporin (cephazolin) were attained. The concentration-time profiles for each drug class have the general form shown in FIG. IA and FIG. IIIA of the accompanying drawings. Additionally a gentamicin profile of the form shown in FIG. IIIA was generated, which reached a peak of 12 mg/l over 3 hours, was maintained at 12 mg/l for a further hour, then was reconstituted to a range of steady-state concentrations (0, 0.5, 1.0, 2.0, 3.0, 4.0 mg/l) to yield the experimental results shown in Table 4. […]
substance,measurement,setting,value
gentamicin,BACTERIAL COUNTS,"peak 4 mg/liter, reconstituted to 3.0 mg/liter at 1 hr, maintained 0 hr (control), 3 hr",3.05 ± 0.33 log ^10 (CFU/mL)
same,BACTERIAL COUNTS,"peak 4 mg/liter, reconstituted to 3.0 mg/liter at 1 hr, maintained 0 hr (control), 11 hr",8.89 ± 0.20 log ^10 (CFU/mL)
same,BACTERIAL COUNTS,"peak 4 mg/liter, reconstituted to 3.0 mg/liter at 1 hr, maintained 0 hr (control), 25 hr",9.07 ± 0.12 log ^10 (CFU/mL)
same,BACTERIAL COUNTS,"peak 4 mg/liter, reconstituted to 3.0 mg/liter at 1 hr, maintained 0 hr (control), 49 hr",9.01 ± 0.06 log ^10 (CFU/mL)
same,BACTERIAL COUNTS,"peak 4 mg/liter, reconstituted to 3.0 mg/liter at 1 hr, maintained 2 hr, 3 hr",0.17 ± 0.41 log ^10 (CFU/mL)
same,BACTERIAL COUNTS,"peak 4 mg/liter, reconstituted to 3.0 mg/liter at 1 hr, maintained 2 hr, 11 hr",0.55 ± 0.61 log ^10 (CFU/mL)
same,BACTERIAL COUNTS,"peak 4 mg/liter, reconstituted to 3.0 mg/liter at 1 hr, maintained 2 hr, 25 hr",7.95 ± 0.54 log ^10 (CFU/mL)
same,BACTERIAL COUNTS,"peak 4 mg/liter, reconstituted to 3.0 mg/liter at 1 hr, maintained 2 hr, 49 hr",8.89 ± 0.19 log ^10 (CFU/mL)
same,BACTERIAL COUNTS,"peak 4 mg/liter, reconstituted to 3.0 mg/liter at 1 hr, maintained 4 hr, 3 hr",0.17 ± 0.41 log ^10 (CFU/mL)
same,BACTERIAL COUNTS,"peak 4 mg/liter, reconstituted to 3.0 mg/liter at 1 hr, maintained 4 hr, 11 hr",0.17 ± 0.41 log ^10 (CFU/mL)
same,BACTERIAL COUNTS,"peak 4 mg/liter, reconstituted to 3.0 mg/liter at 1 hr, maintained 4 hr, 25 hr",5.18 ± 4.02 log ^10 (CFU/mL)
same,BACTERIAL COUNTS,"peak 4 mg/liter, reconstituted to 3.0 mg/liter at 1 hr, maintained 4 hr, 49 hr",5.99 ± 4.64 log ^10 (CFU/mL)
same,BACTERIAL COUNTS,"peak 4 mg/liter, reconstituted to 3.0 mg/liter at 1 hr, maintained 8 hr, 3 hr",0.33 ± 0.52 log ^10 (CFU/mL)
same,BACTERIAL COUNTS,"peak 4 mg/liter, reconstituted to 3.0 mg/liter at 1 hr, maintained 8 hr, 11 hr",NGD
same,BACTERIAL COUNTS,"peak 4 mg/liter, reconstituted to 3.0 mg/liter at 1 hr, maintained 8 hr, 25 hr",NGD
same,BACTERIAL COUNTS,"peak 4 mg/liter, reconstituted to 3.0 mg/liter at 1 hr, maintained 8 hr, 49 hr",NGD
same,BACTERIAL COUNTS,"post-distribution peak 4 mg/liter, reconstituted at 1 hr to 0 mg/liter, 3 hr",3.96 ± 0.70 log ^10 (CFU/mL)
same,BACTERIAL COUNTS,"post-distribution peak 4 mg/liter, reconstituted at 1 hr to 0 mg/liter, 11 hr",9.24 ± 0.34 log ^10 (CFU/mL)
same,BACTERIAL COUNTS,"post-distribution peak 4 mg/liter, reconstituted at 1 hr to 0 mg/liter, 25 hr",9.15 ± 0.17 log ^10 (CFU/mL)
same,BACTERIAL COUNTS,"post-distribution peak 4 mg/liter, reconstituted at 1 hr to 0 mg/liter, 49 hr",8.93 ± 0.12 log ^10 (CFU/mL)
same,BACTERIAL COUNTS,"post-distribution peak 4 mg/liter, reconstituted at 1 hr to 2.0 mg/liter, 3 hr",1.92 ± 1.21 log ^10 (CFU/mL)
same,BACTERIAL COUNTS,"post-distribution peak 4 mg/liter, reconstituted at 1 hr to 2.0 mg/liter, 11 hr",7.76 ± 1.06 log ^10 (CFU/mL)
same,BACTERIAL COUNTS,"post-distribution peak 4 mg/liter, reconstituted at 1 hr to 2.0 mg/liter, 25 hr",8.69 ± 0.63 log ^10 (CFU/mL)
same,BACTERIAL COUNTS,"post-distribution peak 4 mg/liter, reconstituted at 1 hr to 2.0 mg/liter, 49 hr",9.34 ± 0.27 log ^10 (CFU/mL)
same,BACTERIAL COUNTS,"post-distribution peak 4 mg/liter, reconstituted at 1 hr to 2.5 mg/liter, 3 hr",0.33 ± 0.52 log ^10 (CFU/mL)
same,BACTERIAL COUNTS,"post-distribution peak 4 mg/liter, reconstituted at 1 hr to 2.5 mg/liter, 11 hr",0.33 ± 0.52 log ^10 (CFU/mL)
same,BACTERIAL COUNTS,"post-distribution peak 4 mg/liter, reconstituted at 1 hr to 2.5 mg/liter, 25 hr",4.85 ± 3.82 log ^10 (CFU/mL)
same,BACTERIAL COUNTS,"post-distribution peak 4 mg/liter, reconstituted at 1 hr to 2.5 mg/liter, 49 hr",5.98 ± 4.63 log ^10 (CFU/mL)
same,BACTERIAL COUNTS,"post-distribution peak 4 mg/liter, reconstituted at 1 hr to 3.0 mg/liter, 3 hr",0.33 ± 0.52 log ^10 (CFU/mL)
same,BACTERIAL COUNTS,"post-distribution peak 4 mg/liter, reconstituted at 1 hr to 3.0 mg/liter, 11 hr",NGD
same,BACTERIAL COUNTS,"post-distribution peak 4 mg/liter, reconstituted at 1 hr to 3.0 mg/liter, 25 hr",NGD
same,BACTERIAL COUNTS,"post-distribution peak 4 mg/liter, reconstituted at 1 hr to 3.0 mg/liter, 49 hr",NGD
